Measured values taken from US6372297B1, “Wood preservative oxathiazines” (Uniroyal Chemical Company, Inc., priority 1993, dated 2002).
Values after ≈ are worked out from the molar mass of the structure shown. Read-outs that look alike come from different tables or passages of the source.

Experiments:
[1] = tested on: blue-stain fungi and molds; experiment: Activity against blue-stain fungi and molds in a stick test (threshold concentrations); conditions: beech sticks, 22° C., 90% relative humidity
In short: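 Wood sticks soaked 3 h in compound serially diluted in 50% ethanol, dried, then inoculated with fungal or spore suspension. Incubated at 22° C and 90% relative humidity until untreated controls grew, then growth scored 0 (none) to 4 (>50% surface covered).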

[2] = tested on: molds and blue-stain fungi; experiment: In vitro activity against molds and blue-stain fungi, poison plate assay (MIC); format: cell-based; conditions: malt extract agar, complete inhibition
Method: The effect of the representative compounds on the growth of certain molds and blue-strain fungi were determined using a poison plate assay according to the following procedure: The solutions of the representative compounds prepared above were further diluted with sterile water to desired concentrations and poured into Petri dishes. Malt extract agar medium was then added aseptically to the Petri dishes and to Petri dishes containing no compound (controls). The Petri dishes were then shaken to provide a uniform distribution of the agar medium. Each Petri dish containing compound and each control Petri dish, was then inoculated with a fungus and incubated for a period of time sufficient to permit complete growth of the fungus in the respective control Petri dish. The Petri dishes containing compound were then examined to determine the amount of inhibition of fungi for each concentration of compound tested.

melting point: 113 to 114 °C
SMILES: O=S1(=O)CCON=C1c1ccc(Cl)s1 [Compound 61, 3-(5-chloro-2-thienyl)-5,6-dihydro-1,4,2-oxathiazine-4,4-dioxide]
Threshold concentration (ppm), A. niger, score 0 ([1]; A. niger, minimum concentration to obtain score 0): <250 ppm
Threshold concentration (ppm), A. niger, score 1-2 ([1]; A. niger, minimum concentration to obtain score 1-2): <250 ppm
Threshold concentration (ppm), Aureobasidium, score 0 ([1]; Aureobasidium, minimum concentration to obtain score 0): >1000 ppm
Threshold concentration (ppm), Aureobasidium, score 1-2 ([1]; Aureobasidium, minimum concentration to obtain score 1-2): 250-500 ppm
Threshold concentration (ppm), Sclerophoma, score 0 ([1]; Sclerophoma, minimum concentration to obtain score 0): 100 ppm
Threshold concentration (ppm), Sclerophoma, score 1-2 ([1]; Sclerophoma, minimum concentration to obtain score 1-2): <50 ppm
Threshold concentration (ppm), Trichoderma, score 0 ([1]; Trichoderma, minimum concentration to obtain score 0): 2500 ppm
Threshold concentration (ppm), Trichoderma, score 1-2 ([1]; Trichoderma, minimum concentration to obtain score 1-2): 1000-2500 ppm
MIC ([2]; A. amstelodami, read-out: MIC (ppm) against A. amstelodami): 5 µg/mL (≈ 19.9 µM)
MIC ([2]; Aspergillus niger, A. niger, read-out: MIC (ppm) against A. niger): < 1 µg/mL
MIC ([2]; Aspergillus versicolor, A. versicolor, read-out: MIC (ppm) against A. versicolor): 2.5 µg/mL (≈ 9.93 µM)
MIC ([2]; Aureobasidium pullulans, A. pullulans, read-out: MIC (ppm) against A. pullulans): 10 µg/mL (≈ 39.7 µM)
MIC ([2]; C. pilifera, read-out: MIC (ppm) against C. pilifera): 2.5 µg/mL (≈ 9.93 µM)
MIC ([2]; Cladosporium cladosporioides, C. cladosporioides, read-out: MIC (ppm) against C. cladosporioides): 10 µg/mL (≈ 39.7 µM)
MIC ([2]; Fusarium solani, F. solani, read-out: MIC (ppm) against F. solani): 5 µg/mL (≈ 19.9 µM)
MIC ([2]; Geotrichum candidum, G. candidum, read-out: MIC (ppm) against G. candidum): 10 µg/mL (≈ 39.7 µM)
MIC ([2]; P. purpurogenum, read-out: MIC (ppm) against P. purpurogenum): 5 µg/mL (≈ 19.9 µM)
MIC ([2]; P. violacea, read-out: MIC (ppm) against P. violacea): 25 µg/mL (≈ 99.3 µM)
MIC ([2]; Paecilomyces variotii, P. variotii, read-out: MIC (ppm) against P. variotii): 5 µg/mL (≈ 19.9 µM)
MIC ([2]; S. atra, read-out: MIC (ppm) against S. atra): 2.5 µg/mL (≈ 9.93 µM)
MIC ([2]; S. entoxylina, read-out: MIC (ppm) against S. entoxylina): 10 µg/mL (≈ 39.7 µM)
MIC ([2]; Trichoderma viride, T. viride, read-out: MIC (ppm) against T. viride): 10 µg/mL (≈ 39.7 µM)
MIC ([2]; U. atrum, read-out: MIC (ppm) against U. atrum): 10 µg/mL (≈ 39.7 µM)
